# Source: patent US12709731B2, “Method of producing biological material” (NTT, Inc., priority 2021, dated 2026)
# Experiments:
# Assay type in all cases: cell-based
# Cyanidioschyzon merolae [1] = assay: Test 1: color of microorganism-containing liquid after suspension culture with regulator; conditions: for contribution to a reduction of light-harvesting pigments: added to MA2 culture medium, 18 hours culture, judged from color in FIG. 3; for color of the microorganism-containing liquid after cultivation (FIG. 3): MA2 culture medium, light condition, 18 hours after addition
# Method: Unicellular red algae were cultured in suspension under a light condition and a regulator was added thereto. An MA2 culture medium was used as a culture medium. Cyanidioschyzon merolae were used as unicellular red algae. Dimethyl 2-oxoglutarate was used as the regulator. Then, after the regulator was added, the culture was further continued for 18 hours.
# The above-mentioned cultivation was carried out for each case where the final concentrations of dimethyl 2-oxoglutarate were adjusted to 10, 20, 40 and 80 mmmol/L (=mM). In addition, cultivation was also carried out in a similar manner except that the addition of dimethyl 2-oxoglutarate was omitted.
# Thereafter, each of microorganism-containing liquids containing unicellular red algae and the culture medium was imaged.
# In addition, cultivation was carried out in a similar manner except that 2-oxoglutaric acid was used instead of using dimethyl 2-oxoglutarate. Thereafter, each of dispersion microorganism-containing liquids containing unicellular red algae and the culture medium was imaged.
# FIG. 3 is an image obtained by imaging the microorganism-containing liquids after cultivation. In FIG. 3, “2-OG” and “dimethyl 2-OG” represent 2-oxoglutaric acid and dimethyl 2-oxoglutarate, respectively.
# Cyanidioschyzon merolae [2] = assay: Test 3: amount of phycocyanin in microorganism-containing liquid after addition of regulator; conditions: final concentration 2 mmol/L; every culture time as in test 2 (0, 6, 24 hours); average of three independent tests; control increased
# Method: Cultivation was carried out in a similar manner to that in the test 2 and the amounts of phycocyanin contained in the microorganism-containing liquids were determined in every culture time. FIG. 5 is a graph showing an example of the effect of the addition of a regulator on the amount of phycocyanin. […] Furthermore, “dimethyl 2-OG” indicates the results obtained for unicellular red algae cultured by adding dimethyl 2-oxoglutarate to the culture medium as a regulator.
# Cyanidioschyzon merolae [3] = assay: Test 2: amount of chlorophyll a in microorganism-containing liquid after addition of regulator; conditions: final concentration 2 mmol/L; immediately before, 6 hours and 24 hours after addition; average of three independent tests; control increased
# Method: Unicellular red algae were cultured in suspension under a light condition and a regulator was added thereto. An MA2 culture medium was used as a culture medium. Cyanidioschyzon merolae were used as unicellular red algae. Dimethyl 2-oxoglutarate was used as the regulator. The regulator was added so that the final concentration of dimethyl 2-oxoglutarate was 2 mmol/L. After the regulator was added, the cultivation was further continued. Then, the amounts of chlorophyll a contained in the microorganism-containing liquids were determined immediately before the regulator was added, 6 hours after the regulator was added, and 24 hours after the regulator was added. In addition, in parallel with the cultivation, cultivation was carried out as described above in a similar manner except that no regulator was added. The amount of chlorophyll a contained in the microorganism-containing liquid was also determined in the same manner as described above. FIG. 4 is a graph showing an example of the effect of the addition of the regulator on the amounts of chlorophyll a. […] Furthermore, “dimethyl 2-OG” indicates the results obtained for unicellular red algae cultured by adding dimethyl 2-oxoglutarate to the culture medium as a regulator.
# [4] = final concentrations 10, 20, 40 and 80 mmmol/L (=mM), compared with no regulator added
SMILES,contribution to a reduction of light-harvesting pigments (Cyanidioschyzon merolae [1]),color of the microorganism-containing liquid after cultivation (FIG. 3) (Cyanidioschyzon merolae [1]; [4]),amount of phycocyanin contained in the microorganism-containing liquid (FIG. 5) (Cyanidioschyzon merolae [2]),color of the microorganism-containing liquid after cultivation (FIG. 3) (Cyanidioschyzon merolae [1]; final concentration 20 mmol/L or higher),amount of chlorophyll a contained in the microorganism-containing liquid (FIG. 4) (Cyanidioschyzon merolae [3])
"O=C(O)CCC(=O)C(=O)O [2-oxoglutaric acid, 2-Oxoglutaric acid, reference compound]",little contributed,the same color as that in the case with no regulator added,–,–,–
COC(=O)CCC(=O)C(=O)OC [dimethyl 2-oxoglutarate],greatly contributes,lighter than those of the microorganism-containing liquids with no regulator added,decreased according to the culture time,substantially colorless,decreased according to the culture time
